The subject of data set [1] is panel of tumor cell lines. As to conditions: cited from earlier work.
Data set [2] concerns recombinant RSV encoding Renilla luciferase (rA2-Rluc). Kind of data set: RSV antiviral assay (Renilla luciferase reporter RSV in A549 cells). Type of data set: cell-based, respiratory syncytial virus. As to conditions: for activity against RSV (in words): inhibition of RSV gene expression / viral transcription; for IC50: rA2-Rluc in A549 cells, 24 h, luciferase activity, read-out: IC50 against RSV. The protocol: A549 (CCL-185, ATCC) cells were seeded at 1.6×10^4 cells in 100 μl of 5% FBS/1× penicillin-streptomycin/F12 medium per well in 96-well uClear® black plates with clear bottom (Greiner 655090). Cells were infected with 400 PFU/well of a recombinant RSV encoding Renilla luciferase as an additional transcription unit (rA2-Rluc^22) in total volume of 50 μL/well and allowed to adsorb for 1 h. Purified compounds were serially diluted two-fold in triplicate and 50 μL/well of the diluted extracts were added to the infected cells. After further incubation at 37° C. and 5% CO2 for 24 h, the supernatants were removed and cells were lysed using Renilla lysis buffer (Promega). Luciferase activity was measured with the Renilla Luciferase reagent (Promega) and BioTek Synergy Mx microplate luminometer using Gen5 version 2.00.18 software. RSV antiviral effect for test samples was determined by normalizing to DMSO-treated control samples and multiplying by 100 to obtain percent of control. Statistical analysis was performed using GraphPad Prism software version 9.4.1.

In another data set the test system is ESKAPE pathogens. The data set is described as follows: Antibacterial screening. Type of data set: cell-based. As to conditions: ESKAPE pathogens / bacterial screens.
Another data set deals with Candida strains. Kind of data set: Antifungal screening. Type of data set: cell-based. The note with it: several Candida strains / fungal screens.
In another data set the test system is MRSA. The note with it: cited from earlier work.
A further data set has as its system HIV gene expression. The note with it: cited from earlier work.

Here are results for eight molecules from US20250352505A1, “COMPOSITIONS AND METHODS OF TREATING RESPIRATORY SYNCYTIAL VIRUS” (University of South Florida, priority 2023, published 2025).

With isosuberitenone B, in data set [1], the “cytotoxicity against a panel of tumor cell lines” value is reported as “weak cytotoxicity”.

As to `CC(=O)OC1CC2(C)C=C3C4CC(=O)C(C)(CC4O)C3CC2C2(C)CCCC(C)(C)C12` (stereo not shown) [Compound 1, Neosuberitenone A], the “viral inhibitory effects at 25 μg/mL” value in data set [2] (25 μg/mL) is on record as “did not show any viral inhibitory effects”.

19-episuberitenone B: the “cytotoxicity against a panel of tumor cell lines” value in data set [1] is “weak cytotoxicity”.

Regarding `CC(=O)OC1CC2(C)C(O)C(C3CC(=O)C(C)=CC3O)=CCC2C2(C)CCCC(C)(C)C12` (stereo not shown) [Compound 3, Suberitenone F], in data set [2], the “activity against RSV (in words)” value is reported as “active”. Also, the antibacterial activity entry in the data set with ESKAPE pathogens is “inactive”. Also, the antifungal activity entry with Candida strains was “inactive”.

With oxaspirosuberitenone, in the data set with MRSA, the “antibacterial activity against MRSA” value is given as “mild antibacterial activity”.

anvilone A: the HIV gene expression entry in the data set on HIV gene expression was “turned on HIV gene expression”.

As to `CC(=O)OC1CC2(C)CC(O)(C3CC(=O)C(C)=CC3O)CCC2C2(C)CCCC(C)(C)C12` (stereo not shown) [Compound 11, suberitenone B], in data set [2], the “activity against RSV (in words)” value is “active” and the half-inhibitory concentration (IC50) was determined as 3.5 µM. Moreover, the antibacterial activity entry in the data set on ESKAPE pathogens is “inactive”. Moreover, the antifungal activity result with Candida strains was “inactive”.

For `CC(=O)OC1CC2(C)C=C(C3CC(=O)C(C)=CC3O)CCC2C2(C)CCCC(C)(C)C12` (stereo not shown) [Compound 10, suberitenone A], in data set [2], the “activity against RSV (in words)” value is given as “active” and the IC50 is 7.9 µM. Moreover, the antibacterial activity result in the data set on ESKAPE pathogens was “inactive”. In addition, the antifungal activity entry in the data set on Candida strains is “inactive”.

One may read the IC50 as the concentration needed to halve the response being measured.
